This is an account of results in US8765748B2, “Indazolyl, benzimidazolyl, benzotriazolyl substituted indolinone derivatives as kinase inhibitors useful in the treatment of cancer” (University Health Network, priority 2007, dated 2014).

Molecules are shown by their SMILES.

Holding throughout (assay): Kinase Selectivity Assay (CEREP, HTRF)
Holding throughout (assay type): biochemical
A general note: Time-resolved FRET reads energy transfer from a long-lived donor to a nearby acceptor.

One assay addresses T1, BMX kinase (Etk) (Homo sapiens, UniProt P51813).
T1 construct: CEREP, France (ran the assays)
T1 sequence (P51813 1-675): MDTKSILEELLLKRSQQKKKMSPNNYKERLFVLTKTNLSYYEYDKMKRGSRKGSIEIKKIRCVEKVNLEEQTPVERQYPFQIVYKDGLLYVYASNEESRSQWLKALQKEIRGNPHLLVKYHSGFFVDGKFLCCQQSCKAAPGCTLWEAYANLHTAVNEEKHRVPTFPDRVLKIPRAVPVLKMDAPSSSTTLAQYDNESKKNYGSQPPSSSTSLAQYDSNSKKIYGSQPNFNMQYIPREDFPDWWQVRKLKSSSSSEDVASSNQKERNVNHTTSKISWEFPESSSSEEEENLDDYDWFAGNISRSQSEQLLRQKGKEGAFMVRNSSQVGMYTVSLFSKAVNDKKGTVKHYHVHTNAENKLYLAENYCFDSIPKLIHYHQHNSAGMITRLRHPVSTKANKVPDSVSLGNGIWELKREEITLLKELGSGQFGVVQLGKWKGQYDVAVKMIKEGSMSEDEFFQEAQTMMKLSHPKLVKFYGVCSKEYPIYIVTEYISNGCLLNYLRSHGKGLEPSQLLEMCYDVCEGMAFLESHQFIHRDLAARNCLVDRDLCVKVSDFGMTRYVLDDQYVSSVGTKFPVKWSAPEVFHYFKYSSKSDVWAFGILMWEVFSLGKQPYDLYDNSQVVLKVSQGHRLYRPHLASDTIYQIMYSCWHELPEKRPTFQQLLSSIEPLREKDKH
The settings on record: read-out: % Inhibition at 10 μM Concentration, BMX (Etk). The protocol: (§1) kinase, ROCK2, RSK2, Src kinase, Syk, and TRKA. The % Inhibition was determined

The next assay has as its target T2, CSK (Homo sapiens, UniProt P41240).
T2 construct: CEREP, France (ran the assays)
The settings on record: read-out: % Inhibition at 10 μM Concentration, CSK. The method, then:
as §1

A further assay concerns the target T3, FLT-3 kinase (Homo sapiens, UniProt P36888).
T3 sequence (P36888 27-993): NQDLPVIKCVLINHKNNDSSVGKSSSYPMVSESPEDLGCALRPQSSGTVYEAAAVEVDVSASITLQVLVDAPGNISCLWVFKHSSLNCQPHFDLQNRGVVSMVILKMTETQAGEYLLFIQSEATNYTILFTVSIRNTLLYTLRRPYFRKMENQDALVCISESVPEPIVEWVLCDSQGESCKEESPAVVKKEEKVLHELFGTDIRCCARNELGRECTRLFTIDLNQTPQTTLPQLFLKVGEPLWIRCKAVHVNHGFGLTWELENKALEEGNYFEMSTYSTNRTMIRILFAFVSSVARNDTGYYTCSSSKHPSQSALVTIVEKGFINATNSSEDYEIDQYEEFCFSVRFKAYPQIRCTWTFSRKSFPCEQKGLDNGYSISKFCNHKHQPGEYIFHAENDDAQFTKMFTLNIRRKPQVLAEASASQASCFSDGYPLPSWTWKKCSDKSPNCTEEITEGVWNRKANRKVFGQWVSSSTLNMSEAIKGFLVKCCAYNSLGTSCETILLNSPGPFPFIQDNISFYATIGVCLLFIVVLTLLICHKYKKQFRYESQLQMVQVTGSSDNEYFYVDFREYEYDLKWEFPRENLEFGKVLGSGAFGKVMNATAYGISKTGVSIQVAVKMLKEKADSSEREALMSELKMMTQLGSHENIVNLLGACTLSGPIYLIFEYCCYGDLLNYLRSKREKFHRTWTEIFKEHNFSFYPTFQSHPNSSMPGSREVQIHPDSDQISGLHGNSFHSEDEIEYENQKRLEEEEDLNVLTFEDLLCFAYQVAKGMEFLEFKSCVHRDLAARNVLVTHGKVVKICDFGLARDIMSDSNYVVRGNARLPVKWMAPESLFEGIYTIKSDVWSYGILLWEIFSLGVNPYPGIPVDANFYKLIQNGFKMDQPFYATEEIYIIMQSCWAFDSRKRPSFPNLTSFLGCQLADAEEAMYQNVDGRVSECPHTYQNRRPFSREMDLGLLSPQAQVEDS
The settings on record: read-out: % Inhibition at 10 μM Concentration, FLT-3. The method, then: as §1

For a further assay, the target named is IGF1R kinase (Homo sapiens, UniProt P08069). The settings on record: read-out: % Inhibition at 10 μM Concentration, IGF1R. The protocol:
as §1

A further assay addresses Lyn (Homo sapiens, UniProt P07948). The settings on record: read-out: % Inhibition at 10 μM Concentration, Lyn. The method, then:
as §1

For another assay, the target named is PKCa (Homo sapiens, UniProt P17252). The settings on record: read-out: % Inhibition at 10 μM Concentration, PKCalpha. The protocol: as §1
A further assay addresses PKCb1 (Homo sapiens, UniProt P05771). The settings on record: read-out: % Inhibition at 10 μM Concentration, PKCbeta 1. The method, then: as §1
A further assay addresses ROCK2 (Homo sapiens, UniProt O75116). The settings on record: read-out: % Inhibition at 10 μM Concentration, ROCK2. The protocol: as §1

Sequence of IGF1R kinase (P08069 31-1367): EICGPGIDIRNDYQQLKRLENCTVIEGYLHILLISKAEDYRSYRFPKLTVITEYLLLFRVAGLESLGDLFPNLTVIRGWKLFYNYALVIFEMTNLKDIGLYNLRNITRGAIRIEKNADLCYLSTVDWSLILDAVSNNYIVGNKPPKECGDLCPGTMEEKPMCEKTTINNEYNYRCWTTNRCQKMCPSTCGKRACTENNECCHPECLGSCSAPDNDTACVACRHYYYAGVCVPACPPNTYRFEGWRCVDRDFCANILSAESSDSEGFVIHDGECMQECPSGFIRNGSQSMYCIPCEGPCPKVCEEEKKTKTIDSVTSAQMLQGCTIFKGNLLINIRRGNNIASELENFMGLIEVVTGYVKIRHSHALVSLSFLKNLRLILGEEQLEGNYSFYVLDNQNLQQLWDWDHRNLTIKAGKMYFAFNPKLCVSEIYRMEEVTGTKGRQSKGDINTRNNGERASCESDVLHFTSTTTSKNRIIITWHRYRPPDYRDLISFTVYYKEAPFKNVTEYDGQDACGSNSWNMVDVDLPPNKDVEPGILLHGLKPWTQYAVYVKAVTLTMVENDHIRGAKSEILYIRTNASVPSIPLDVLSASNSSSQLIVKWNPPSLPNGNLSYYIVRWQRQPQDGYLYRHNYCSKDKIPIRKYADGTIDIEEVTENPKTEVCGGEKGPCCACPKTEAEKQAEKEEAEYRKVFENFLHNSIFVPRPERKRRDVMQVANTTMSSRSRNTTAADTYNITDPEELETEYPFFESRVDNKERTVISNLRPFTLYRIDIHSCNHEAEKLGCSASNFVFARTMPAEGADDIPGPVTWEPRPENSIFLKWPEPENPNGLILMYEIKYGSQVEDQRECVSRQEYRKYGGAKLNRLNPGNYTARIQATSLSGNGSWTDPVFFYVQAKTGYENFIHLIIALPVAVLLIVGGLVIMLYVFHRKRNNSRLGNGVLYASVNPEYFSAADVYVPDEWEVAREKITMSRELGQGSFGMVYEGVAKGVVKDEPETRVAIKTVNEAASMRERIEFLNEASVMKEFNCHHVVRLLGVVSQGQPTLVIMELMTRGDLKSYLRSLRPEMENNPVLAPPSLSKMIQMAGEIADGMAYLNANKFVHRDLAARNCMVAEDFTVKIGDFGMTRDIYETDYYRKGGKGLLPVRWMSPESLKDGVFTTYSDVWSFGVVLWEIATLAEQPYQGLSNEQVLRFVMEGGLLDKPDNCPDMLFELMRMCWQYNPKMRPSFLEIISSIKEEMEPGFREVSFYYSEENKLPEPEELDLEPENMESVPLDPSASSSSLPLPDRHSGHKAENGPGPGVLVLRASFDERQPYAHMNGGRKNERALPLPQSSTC
Sequence of PKCb1 (P05771 whole entry): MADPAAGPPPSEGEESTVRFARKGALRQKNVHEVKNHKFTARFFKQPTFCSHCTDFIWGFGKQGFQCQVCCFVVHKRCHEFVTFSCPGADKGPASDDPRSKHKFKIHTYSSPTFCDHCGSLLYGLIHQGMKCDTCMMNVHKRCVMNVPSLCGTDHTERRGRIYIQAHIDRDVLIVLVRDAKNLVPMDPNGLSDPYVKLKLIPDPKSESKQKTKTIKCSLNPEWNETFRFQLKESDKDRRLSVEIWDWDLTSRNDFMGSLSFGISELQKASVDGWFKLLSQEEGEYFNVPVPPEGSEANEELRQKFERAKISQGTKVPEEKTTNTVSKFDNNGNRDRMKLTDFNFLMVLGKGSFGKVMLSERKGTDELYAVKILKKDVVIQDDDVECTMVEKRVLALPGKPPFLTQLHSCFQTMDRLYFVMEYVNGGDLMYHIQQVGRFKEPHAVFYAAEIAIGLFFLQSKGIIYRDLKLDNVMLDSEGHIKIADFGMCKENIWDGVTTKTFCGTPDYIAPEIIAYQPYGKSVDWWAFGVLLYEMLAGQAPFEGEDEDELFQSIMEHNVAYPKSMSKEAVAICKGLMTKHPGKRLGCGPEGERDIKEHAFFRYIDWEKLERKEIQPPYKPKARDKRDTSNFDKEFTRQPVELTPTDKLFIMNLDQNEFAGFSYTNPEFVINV
T2 sequence (P41240 whole entry): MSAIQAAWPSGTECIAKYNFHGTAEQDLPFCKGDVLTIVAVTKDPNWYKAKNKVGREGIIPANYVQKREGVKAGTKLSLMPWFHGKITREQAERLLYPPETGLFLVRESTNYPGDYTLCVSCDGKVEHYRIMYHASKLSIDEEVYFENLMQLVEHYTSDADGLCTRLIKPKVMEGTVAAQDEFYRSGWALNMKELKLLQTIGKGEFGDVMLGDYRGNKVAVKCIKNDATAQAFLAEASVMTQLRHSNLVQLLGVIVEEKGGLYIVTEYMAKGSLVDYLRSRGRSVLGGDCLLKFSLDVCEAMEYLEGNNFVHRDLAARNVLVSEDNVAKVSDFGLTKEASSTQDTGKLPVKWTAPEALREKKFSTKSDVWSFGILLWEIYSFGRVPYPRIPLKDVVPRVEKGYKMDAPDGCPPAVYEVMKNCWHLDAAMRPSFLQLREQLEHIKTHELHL
Sequence of Lyn (P07948 whole entry): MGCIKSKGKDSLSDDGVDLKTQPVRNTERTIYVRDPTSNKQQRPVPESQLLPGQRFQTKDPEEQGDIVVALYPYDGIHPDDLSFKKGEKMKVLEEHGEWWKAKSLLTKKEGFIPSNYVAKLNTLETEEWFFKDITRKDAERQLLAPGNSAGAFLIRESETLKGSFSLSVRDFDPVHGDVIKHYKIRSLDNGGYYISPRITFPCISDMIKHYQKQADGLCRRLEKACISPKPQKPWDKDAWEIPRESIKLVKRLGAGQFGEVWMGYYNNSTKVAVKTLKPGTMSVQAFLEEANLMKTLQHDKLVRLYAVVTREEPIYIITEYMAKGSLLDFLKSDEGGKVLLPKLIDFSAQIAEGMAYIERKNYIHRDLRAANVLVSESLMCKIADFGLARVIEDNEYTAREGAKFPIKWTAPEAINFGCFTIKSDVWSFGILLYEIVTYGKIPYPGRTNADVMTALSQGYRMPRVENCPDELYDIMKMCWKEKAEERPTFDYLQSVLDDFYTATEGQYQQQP
Sequence of ROCK2 (O75116 whole entry): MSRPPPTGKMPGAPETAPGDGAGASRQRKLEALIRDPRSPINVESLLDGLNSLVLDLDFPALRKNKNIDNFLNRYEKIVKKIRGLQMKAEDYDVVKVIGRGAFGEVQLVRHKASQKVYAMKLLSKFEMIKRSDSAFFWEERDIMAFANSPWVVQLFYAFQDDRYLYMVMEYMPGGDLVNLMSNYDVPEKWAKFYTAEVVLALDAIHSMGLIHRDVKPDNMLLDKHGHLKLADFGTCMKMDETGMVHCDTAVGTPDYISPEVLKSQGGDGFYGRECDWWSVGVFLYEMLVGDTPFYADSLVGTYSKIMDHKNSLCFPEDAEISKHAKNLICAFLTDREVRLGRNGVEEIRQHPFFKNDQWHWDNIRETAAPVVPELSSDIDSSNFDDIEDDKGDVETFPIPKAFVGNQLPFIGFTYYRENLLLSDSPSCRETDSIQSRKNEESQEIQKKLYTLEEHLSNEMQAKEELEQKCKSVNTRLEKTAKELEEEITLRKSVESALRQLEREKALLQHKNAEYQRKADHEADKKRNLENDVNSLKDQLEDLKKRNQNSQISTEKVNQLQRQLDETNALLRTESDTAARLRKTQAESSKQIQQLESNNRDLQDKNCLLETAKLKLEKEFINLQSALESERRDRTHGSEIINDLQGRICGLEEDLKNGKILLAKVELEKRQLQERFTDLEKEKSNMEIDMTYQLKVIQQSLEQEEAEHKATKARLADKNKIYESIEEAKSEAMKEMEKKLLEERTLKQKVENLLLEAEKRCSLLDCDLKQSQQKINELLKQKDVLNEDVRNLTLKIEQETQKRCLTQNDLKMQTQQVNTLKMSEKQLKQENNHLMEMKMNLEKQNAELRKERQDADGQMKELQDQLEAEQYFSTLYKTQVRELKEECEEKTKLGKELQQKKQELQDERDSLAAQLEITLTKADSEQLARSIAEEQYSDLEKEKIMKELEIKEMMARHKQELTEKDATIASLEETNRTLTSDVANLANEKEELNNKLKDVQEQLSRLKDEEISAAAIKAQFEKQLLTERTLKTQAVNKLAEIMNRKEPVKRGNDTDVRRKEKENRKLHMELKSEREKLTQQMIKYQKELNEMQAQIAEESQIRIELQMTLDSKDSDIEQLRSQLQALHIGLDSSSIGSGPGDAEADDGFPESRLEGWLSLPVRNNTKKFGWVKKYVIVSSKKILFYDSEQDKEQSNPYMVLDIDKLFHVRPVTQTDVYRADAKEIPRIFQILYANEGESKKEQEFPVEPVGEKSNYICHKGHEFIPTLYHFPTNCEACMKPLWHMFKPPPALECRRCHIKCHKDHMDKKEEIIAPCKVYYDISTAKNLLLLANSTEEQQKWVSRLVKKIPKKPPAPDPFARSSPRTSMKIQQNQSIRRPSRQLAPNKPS

With `COc1ccc2c(c1)C(=Cc1ccc3c(-c4ccc(N5CCN(C)CC5)nc4)n[nH]c3c1)C(=O)N2` (mixture of isomers) [Example A97, (E and Z)-5-methoxy-3-((3-(6-(4-methylpiperazin-1-yl)pyridin-3-yl)-1H-indazol-6-yl)methylene)indolin-2-one], the inhibition at 10 µM at BMX kinase (Etk) came out at 9%; at CSK it was 51%; at FLT-3 kinase, 100%; on IGF1R kinase it was 4%; on Lyn, 85%; at PKCa, 9%. Also, the values for the inhibition at 10 µM at PKCb1 and on ROCK2 were 2% and 22%, respectively.

With `O=C1Nc2ccccc2C1=Cc1ccc2c(/C=C/c3ccccn3)n[nH]c2c1` (mixture of isomers) [Example A41, (E and Z)-3-((3-((E)-2-(pyridin-2-yl)vinyl)-1H-indazol-6-yl)methylene)indolin-2-one], the inhibition at 10 µM was 53% on BMX kinase (Etk); 86% on CSK; 100% at FLT-3 kinase; 43% at IGF1R kinase; 98% at Lyn; 2% on PKCa. Besides, the inhibition at 10 µM on PKCb1 is -2%; at ROCK2 it was -3%.

Regarding `O=C1Nc2ccccc2/C1=C\c1ccc2[nH]nnc2c1` [Example A1, (E)-3-((1H-benzo[d][1,2,3]triazol-5-yl)methylene)indolin-2-one], the inhibition at 10 µM at CSK turned out to be 8%; at FLT-3 kinase, 93%; at IGF1R kinase it was 7%; at Lyn it was 14%; on PKCa it was 9%; at PKCb1, 1%. The inhibition at 10 µM at ROCK2 is 1%.

On to `O=C1Nc2ccccc2/C1=C\c1ccc2cn[nH]c2c1` [Example A5, (E)-3-((1H-indazol-6-yl)methylene)indolin-2-one], for which the inhibition at 10 µM is -3% on BMX kinase (Etk); 5% on CSK; 76% at FLT-3 kinase; -4% on IGF1R kinase; -5% on Lyn; 0% at PKCa. Besides, the inhibition at 10 µM on PKCb1 is -5%; on ROCK2 it was 3%.

In the case of `O=C1Nc2ccccc2/C1=C\c1ccc2c(/C=C/c3ccccc3Cl)n[nH]c2c1` [Example A60, (E)-3-((3-((E)-2-chlorostyryl)-1H-indazol-6-yl)methylene)indolin-2-one], the inhibition at 10 µM on BMX kinase (Etk) is 18%; at CSK it was 17%; on FLT-3 kinase, 10%; on IGF1R kinase, 81%; at Lyn it was 88%; on PKCa it was -1%. Further, the inhibition at 10 µM at PKCb1 was 0%; at ROCK2 it was -1%.
